Test system: E. coli ATCC 25922
Experiment: Time-dependent killing
Format: cell-based
Details: antibiotic at 4x MIC

Structure (SMILES): CC1(C)S[C@@H]2[C@H](NC(=O)[C@H](N)c3ccccc3)C(=O)N2[C@H]1C(=O)O [Ampicillin, ampicillin]
- c.f.u. in time-dependent killing: fell below the limit of detection

From publication PMC10155127 (Nature microbiology, 2022)
